Molecular target: T1, Cannabinoid receptor 2 (Homo sapiens, UniProt P34972)
Assay: Agonist activity at recombinant human CB2 receptor expressed in CHO cells assessed as inhibition of forskolin-induced cAMP accumulation by measuring maximum efficacy preincubated for 15 mins followed by forskolin stimulation and measured after 15 mins by HTRF assay relative to control
Type: functional, cell-based
Settings: filed as agonist, time 30.0 min

T1 sequence (P34972 whole entry): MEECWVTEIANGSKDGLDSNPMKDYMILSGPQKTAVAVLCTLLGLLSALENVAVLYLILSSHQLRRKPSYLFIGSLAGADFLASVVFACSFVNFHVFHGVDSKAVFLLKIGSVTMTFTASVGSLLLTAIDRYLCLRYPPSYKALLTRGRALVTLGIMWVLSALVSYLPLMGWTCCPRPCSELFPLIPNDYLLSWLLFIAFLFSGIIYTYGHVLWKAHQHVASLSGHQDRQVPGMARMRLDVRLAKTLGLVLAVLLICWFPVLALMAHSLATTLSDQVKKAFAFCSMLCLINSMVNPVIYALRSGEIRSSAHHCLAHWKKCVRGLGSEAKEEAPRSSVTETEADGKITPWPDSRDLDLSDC

| SMILES | Emax [%] |
| --- | --- |
| CCCCCC[Si](C)(C)c1cc(O)c2c(c1)OC(C)(C)[C@@H]1CCC(C)=C[C@@H]21 | 90.2 |
| CCCC[Si](C)(C)c1cc(O)c(C2CCCCC2)c(O)c1 | 95.2 |

Molecular target: T2, Cannabinoid receptor 1 (Homo sapiens, UniProt P21554)
Assay: Displacement of [3H]-CP55940 from recombinant human CB1 receptor expressed in CHO cells assessed as inhibition constant incubated for 120 mins by radioligand binding assay
Type: cell-based
Settings: not given

T2 sequence (P21554 whole entry): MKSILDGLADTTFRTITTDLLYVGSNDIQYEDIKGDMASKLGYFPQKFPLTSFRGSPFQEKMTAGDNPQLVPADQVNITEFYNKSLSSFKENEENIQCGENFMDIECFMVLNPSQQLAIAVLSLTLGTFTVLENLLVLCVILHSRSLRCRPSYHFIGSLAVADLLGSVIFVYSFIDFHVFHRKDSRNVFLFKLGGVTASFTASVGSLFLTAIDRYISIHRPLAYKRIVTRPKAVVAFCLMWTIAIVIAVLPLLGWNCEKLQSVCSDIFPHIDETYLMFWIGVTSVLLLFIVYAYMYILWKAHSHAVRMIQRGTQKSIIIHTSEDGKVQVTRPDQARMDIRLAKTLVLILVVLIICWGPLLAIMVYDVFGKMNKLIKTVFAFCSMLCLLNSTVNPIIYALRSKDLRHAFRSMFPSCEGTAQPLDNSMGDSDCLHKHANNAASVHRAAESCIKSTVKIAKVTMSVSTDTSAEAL

| SMILES | Ki [nM] |
| --- | --- |
| CCCCCC[Si](C)(C)c1cc(O)c2c(c1)OC(C)(C)[C@@H]1CC=C(CO)C[C@@H]21 | 0.43 |
| CCCCCC[Si](C)(C)c1cc(O)c2c(c1)OC(C)(C)[C@@H]1CCC(C)=C[C@@H]21 | 0.8 |
| CCCC[Si](C)(C)c1cc(O)c(C2CCCCC2)c(O)c1 | 241 |

Molecular target: T1, Cannabinoid receptor 2
Assay: Displacement of [3H]-CP55940 from recombinant human CB2 receptor expressed in CHO cells assessed as inhibition constant incubated for 120 mins by radioligand binding assay
Type: cell-based
Settings: not given

| SMILES | Ki [nM] |
| --- | --- |
| CCCCCC[Si](C)(C)c1cc(O)c2c(c1)OC(C)(C)[C@@H]1CC=C(CO)C[C@@H]21 | 0.97 |
| CCCCCC[Si](C)(C)c1cc(O)c2c(c1)OC(C)(C)[C@@H]1CCC(C)=C[C@@H]21 | 7.41 |
| CCCC[Si](C)(C)c1cc(O)c(C2CCCCC2)c(O)c1 | 31.4 |

Molecular target: T2, Cannabinoid receptor 1
Assay: Agonist activity at recombinant human CB1 receptor expressed in CHO cells assessed as inhibition of forskolin-induced cAMP accumulation preincubated for 15 mins followed by forskolin stimulation and measured after 15 mins by HTRF assay
Type: functional, cell-based
Settings: not given

| SMILES | EC50 [nM] |
| --- | --- |
| CCCCCC[Si](C)(C)c1cc(O)c2c(c1)OC(C)(C)[C@@H]1CC=C(CO)C[C@@H]21 | 6.58 |
| CCCCCC[Si](C)(C)c1cc(O)c2c(c1)OC(C)(C)[C@@H]1CCC(C)=C[C@@H]21 | 5.94 |

Molecular target: T1, Cannabinoid receptor 2
Assay: Agonist activity at recombinant human CB2 receptor expressed in CHO cells assessed as inhibition of forskolin-induced cAMP accumulation preincubated for 15 mins followed by forskolin stimulation and measured after 15 mins by HTRF assay
Type: functional, cell-based
Settings: not given

| SMILES | EC50 [nM] |
| --- | --- |
| CCCCCC[Si](C)(C)c1cc(O)c2c(c1)OC(C)(C)[C@@H]1CC=C(CO)C[C@@H]21 | 61.3 |
| CCCCCC[Si](C)(C)c1cc(O)c2c(c1)OC(C)(C)[C@@H]1CCC(C)=C[C@@H]21 | 20.2 |
| CCCC[Si](C)(C)c1cc(O)c(C2CCCCC2)c(O)c1 | 25.3 |

Molecular target: T2, Cannabinoid receptor 1
Assay: Agonist activity at recombinant human CB1 receptor expressed in CHO cells assessed as inhibition of forskolin-induced cAMP accumulation by measuring maximum efficacy preincubated for 15 mins followed by forskolin stimulation and measured after 15 mins by HTRF assay relative to control
Type: functional, cell-based
Settings: filed as agonist, time 30.0 min

| SMILES | Emax [%] |
| --- | --- |
| CCCCCC[Si](C)(C)c1cc(O)c2c(c1)OC(C)(C)[C@@H]1CC=C(CO)C[C@@H]21 | 105 |
| CCCCCC[Si](C)(C)c1cc(O)c2c(c1)OC(C)(C)[C@@H]1CCC(C)=C[C@@H]21 | 99.2 |

System: not listed separately
Assay: Metabolic stability in human liver microsomes assessed as half life
Type: ADME, Microsome
Settings: not given

| SMILES | half-life [min] |
| --- | --- |
| C=C(C)[C@@H]1CCC(C)=C[C@H]1c1c(O)cc(CCCCC)cc1O [CANNABIDIOL] | 4.46 |

System: not listed separately
Assay: Metabolic stability in rat liver microsomes assessed as half life
Type: ADME, Microsome
Settings: not given

| SMILES | half-life [min] |
| --- | --- |
| C=C(C)[C@@H]1CCC(C)=C[C@H]1c1c(O)cc(CCCCC)cc1O [CANNABIDIOL] | 1.44 |

System: not listed separately
Assay: Metabolic stability in mouse liver microsomes assessed as half life
Type: ADME, Microsome
Settings: not given

| SMILES | half-life [min] |
| --- | --- |
| C=C(C)[C@@H]1CCC(C)=C[C@H]1c1c(O)cc(CCCCC)cc1O [CANNABIDIOL] | 1.11 |

System: not listed separately
Assay: Metabolic stability in human liver microsomes assessed as intrinsic clearance
Type: ADME, Microsome
Settings: read-out: CLH

| SMILES | CLint scaled [mL/min/kg] |
| --- | --- |
| C=C(C)[C@@H]1CCC(C)=C[C@H]1c1c(O)cc(CCCCC)cc1O [CANNABIDIOL] | 390 |

System: not listed separately
Assay: Metabolic stability in rat liver microsomes assessed as intrinsic clearance
Type: ADME, Microsome
Settings: read-out: CLH

| SMILES | CLint scaled [mL/min/kg] |
| --- | --- |
| C=C(C)[C@@H]1CCC(C)=C[C@H]1c1c(O)cc(CCCCC)cc1O [CANNABIDIOL] | 4900 |

System: not listed separately
Assay: Metabolic stability in mouse liver microsomes assessed as intrinsic clearance
Type: ADME, Microsome
Settings: read-out: CLH

| SMILES | CLint scaled [mL/min/kg] |
| --- | --- |
| C=C(C)[C@@H]1CCC(C)=C[C@H]1c1c(O)cc(CCCCC)cc1O [CANNABIDIOL] | 1720 |

Reference: ChEMBL document CHEMBL5096202, “Carbon-silicon switch led to the discovery of novel synthetic cannabinoids with therapeutic effects in a mouse model of multiple sclerosis” (Eur J Med Chem, 2021)
